The record followed here is ChEMBL document CHEMBL1133985, “Synthesis of diaminobutane derivatives as potent Ca(2+)-permeable AMPA receptor antagonists” (Bioorg Med Chem Lett, 2001).

One experiment is filed under the species Rattus norvegicus. The conditions noted are these: dose 3 mg/kg; route intravenous.
Experiment [1] concerns the target Glutamate receptor ionotropic, AMPA (Rattus norvegicus) (UniProt P19491+P19492+P19493+P19490). Briefly: Antagonistic activity against Ca++permeable Ionotropic glutamate receptor AMPA as concentration of compound that reduces the inward current induced by kainate by 50% in Xenopus oocytes. Format: functional, cell-based. As to conditions: Oocyte; concentration not given here.

Experiment [2] has as its target Glutamate receptor ionotropic, AMPA (Rattus norvegicus, UniProt P19490+P19491+P19492+P19493).
The nature of experiment [3]: Inhibitory activity against [Ca(2+)]-impermeable Ionotropic glutamate receptor AMPA was determined. The conditions noted are these: concentration not given here.

Usually inhibition stands for the share of the control response that was lost under treatment. A high value points to a response far below the control. The IC50 is the midpoint of a concentration-inhibition curve. The low end stands for higher potency, the high end for lower potency.

On to `O=C(Cc1cccc2ccccc12)N1CCC(CNCCCCNCCN2CCCCC2)CC1`, for which the “Delta SBP” value in the experiment filed under Rattus norvegicus is listed as 5 mmHg.
As for `O=C(Cc1cccc2ccccc12)N1CCC(CNCCCCCCC2CCCCC2)CC1`, in experiment [1], the inhibition is 1%. Moreover, the “Delta SBP” value in the experiment listed under Rattus norvegicus is given as -50 mmHg.
In turn, `O=C(Cc1cccc2ccccc12)N1CCC(CNCCCCNCC2CCOCC2)CC1` displayed an inhibition in experiment [1] of 35%. Further, the “Delta SBP” value in the experiment listed under Rattus norvegicus is -22 mmHg.
In the case of `NCCCCNCC1CCN(C(=O)Cc2cccc3ccccc23)CC1`, the inhibition in experiment [1] came to 54%. Also, in the experiment listed under Rattus norvegicus, the “Delta SBP” value is given as -53 mmHg.
The corresponding values for `O=C(Cc1cccc2ccccc12)N1CCC(CCCCCCNCC2CCCCC2)CC1` are 42% and -35 mmHg.
Turning to `CC(C)NCCCCNCC1CCN(C(=O)Cc2cccc3ccccc23)CC1`, the IC50 in experiment [2] stood at 730 nM. The “Delta SBP” value in the experiment filed under Rattus norvegicus is given as 10 mmHg.
In experiment [1], `O=C(Cc1cccc2ccccc12)N1CCC(CNCCCCNCCCO)CC1` came in with an inhibition of 44%. The “Delta SBP” value in the experiment listed under Rattus norvegicus was -6 mmHg.
In experiment [2], `CCCNCCCCNCC1CCN(C(=O)Cc2cccc3ccccc23)CC1` returned an IC50 of 740 nM. The “Delta SBP” value in the experiment filed under Rattus norvegicus came to 9 mmHg.
In the same order, the values of `CC(C)CNCCCCNCC1CCN(C(=O)Cc2cccc3ccccc23)CC1` are 790 nM and 7 mmHg.
`O=C(Cc1cccc2ccccc12)N1CCC(CNCCCCNCC2CCCCC2)CC1` registered an inhibition in experiment [3] of 4.4%. Further, the IC50 in experiment [2] stood at 250 nM. In the experiment filed under Rattus norvegicus, the “Delta SBP” value is given as 11 mmHg.
In experiment [2], `O=C(Cc1cccc2ccccc12)N1CCC(CNCCCCN2CCCCC2)CC1` showed an IC50 of 390 nM. Also, in the experiment filed under Rattus norvegicus, the “Delta SBP” value was determined as 4 mmHg.
The corresponding values for `CN(C)CCCCNCC1CCN(C(=O)Cc2cccc3ccccc23)CC1` are 530 nM and 12 mmHg.
